The values below come from US6794372B2, “Nitrate salts of antimicrobial agents” (Nicox S.A., priority 2000, dated 2004).

Assay [1] has as its system Escherichia Coli (ATCC25922). Briefly: Dilution test in vitro on medium for antibacterial agents, strain E. Coli. It is filed as cell-based. To be noted: CAMH broth, 5×10^5 CFU/ml, 35° C. for 20 hr, read with the naked eye. From the text: (§1) Dilution Test in vitro on Medium for Antibacterial Agents
The capability to antagonize the arising of the microbial resistance of the nitrate salts of the antimicrobial compounds in comparison with that of the respective precursors has been evaluated.
(§2) Such activity has been determined by using the dilution method in vitro on culture medium as described by Sahm et al. (S. D. Sahm, J. A. Washington “Antibacterial susceptibility tests: dilution methods” in: Manual of Clinical Microbiology, ed. A. Balows, W. J. Hausler, Jr, K. L. Hermann, H. D. Isenberg, H. J. Shadomy, 1991, American Society for Microbiology). According to this method a concentration in aqueous solution of substance having antimicrobial activity able to inhibit the growth of some bacterial strains is determined. For the precursor the maximum concentration of the substance at which the microbial growth is still observed under the adopted experimental conditions is selected and the same concentration is used for the corresponding nitrate salt. The solvents and the necessary dilutions for preparing the strain substances of the antibiotics to be tested are prepared according to procedures standard and well known to the person skilled in the field (National Committee for Clinical Laboratory Standards, 1990 “Methods for dilution antimicrobial susceptibility tests for bacteria that grow aerobically. Approved standard M7-A2. National Committee for Clinical Laboratory Standards, Villanova, Pa.). Also the preparation of the culture medium is carried out according to standard procedures and the CAMH broth is used (Cation-adjusted Mueller-Hinton broth) (National Committee for Clinical Laboratory Standards, 1990, Methods for dilution antimicrobial susceptibility tests for bacteria that grow aerobically. Approved standard M7-A2. National Committee for Clinical Laboratory Standards, Villanova, Pa.).
(§3) The inoculation procedure is carried out according to standard procedures and the final concentration of the inocolum is of 5×10^5 CFU (colony forming unit)/ml. The used microorganisms have been Escherichia Coli (ATCC25922) and Staphylococcus Aureus (ATCC29213).
(§4) The test tubes are incubated at 35° C. for 20 hr before reading. The microbial growth, or the absence of the same, is determined in a qualitative way, with the naked eye and it indicates the microbial resistance or, respectively, the sensitivity to the antimicrobial agent.

The subject of assay [2] is Staphylococcus Aureus (ATCC29213). Briefly: Dilution test in vitro on medium for antibacterial agents, strain S. Aureus. It is filed as cell-based. To be noted: CAMH broth, 5×10^5 CFU/ml, 35° C. for 20 hr, read with the naked eye.
From the text: as §1, §2, §3, §4

Take `CC1(C)S[C@@H]2[C@H](NC(=O)[C@H](N)c3ccccc3)C(=O)N2[C@H]1C(=O)O.O=[N+]([O-])O` [Ampicillin.HNO3, Ampicillin nitrate salt]: the “RESPONSE (microbial growth)” value in assay [1] (concentration 1.0 μg/ml) is listed as “No growth”.
In the case of `CC1(C)S[C@@H]2[C@H](NC(=O)[C@H](N)c3ccccc3)C(=O)N2[C@H]1C(=O)O` [Ampicillin], in assay [1] (concentration 1.0 μg/ml), the “RESPONSE (microbial growth)” value is recorded as “Growth”.
Consider `Cc1nnc(SCC2=C(C(=O)O)N3C(=O)[C@@H](NC(=O)Cn4cnnn4)[C@H]3SC2)s1.O=[N+]([O-])O` [Cefazolin.HNO3, Cefazolin nitrate salt], for which, in assay [1] (concentration 0.5 μg/ml), the “RESPONSE (microbial growth)” value was “No growth”.
In the case of `Cc1nnc(SCC2=C(C(=O)O)N3C(=O)[C@@H](NC(=O)Cn4cnnn4)[C@H]3SC2)s1` [Cefazolin], the “RESPONSE (microbial growth)” value in assay [1] (concentration 0.5 μg/ml) is “Growth”.
Take `O=C(O)c1cn(C2CC2)c2cc(N3CCNCC3)c(F)cc2c1=O.O=[N+]([O-])O` [Ciprofloxacin.HNO3, Ciprofloxacin nitrate salt]: the “RESPONSE (microbial growth)” value in assay [2] (concentration 1.0 μg/ml) is recorded as “No growth”.
As for `O=C(O)c1cn(C2CC2)c2cc(N3CCNCC3)c(F)cc2c1=O` [Ciprofloxacin], the “RESPONSE (microbial growth)” value in assay [2] (concentration 0.05 μg/ml) was “Growth”.
On to `CCCC1CC(C(=O)NC(C(C)Cl)C2OC(SC)C(O)C(O)C2O)N(C)C1.O=[N+]([O-])O` (centres unmarked) [Clindamycin.HNO3, Clindamycin nitrate salt], for which the “RESPONSE (microbial growth)” value in assay [2] (concentration 0.03 μg/ml) is “No growth”.
Consider `CCC[C@@H]1C[C@@H](C(=O)N[C@@H]([C@H]2O[C@H](SC)[C@H](O)[C@@H](O)[C@H]2O)[C@H](C)Cl)N(C)C1` [Clindamycin], for which the “RESPONSE (microbial growth)” value in assay [2] (concentration 0.03 μg/ml) is on record as “Growth”.
For the compound `CC[C@H]1OC(=O)[C@H](C)[C@@H](O[C@H]2C[C@@](C)(OC)[C@@H](O)[C@H](C)O2)[C@H](C)[C@@H](O[C@@H]2O[C@H](C)C[C@H](N(C)C)[C@H]2O)[C@](C)(O)C[C@@H](C)C(=O)[C@H](C)[C@@H](O)[C@]1(C)O.O=[N+]([O-])O` [Erythromycin.HNO3, Erythromycin nitrate salt], the “RESPONSE (microbial growth)” value in assay [2] (concentration 0.06 μg/ml) is reported as “No growth”.
For `CC[C@H]1OC(=O)[C@H](C)[C@@H](O[C@H]2C[C@@](C)(OC)[C@@H](O)[C@H](C)O2)[C@H](C)[C@@H](O[C@@H]2O[C@H](C)C[C@H](N(C)C)[C@H]2O)[C@](C)(O)C[C@@H](C)C(=O)[C@H](C)[C@@H](O)[C@]1(C)O` [Erythromycin], the “RESPONSE (microbial growth)” value in assay [2] (concentration 0.06 μg/ml) is reported as “Growth”.
Regarding `Cc1cc(NS(=O)(=O)c2ccc(N)cc2)no1.O=[N+]([O-])O` [Sulfamethoxazole.HNO3, Sulfamethoxazole nitrate salt], in assay [2] (concentration 20 μg/ml), the “RESPONSE (microbial growth)” value is recorded as “No growth”.
`Cc1cc(NS(=O)(=O)c2ccc(N)cc2)no1` [Sulfamethoxazole]: the “RESPONSE (microbial growth)” value in assay [2] (concentration 20 μg/ml) is on record as “Growth”.
For `COc1cc(Cc2cnc(N)nc2N)cc(OC)c1OC.O=[N+]([O-])O` [Trimethoprim.HNO3, Trimethoprim nitrate salt], in assay [2] (concentration 0.5 μg/ml), the “RESPONSE (microbial growth)” value was “No growth”.
Take `COc1cc(Cc2cnc(N)nc2N)cc(OC)c1OC` [Trimethoprim]: the “RESPONSE (microbial growth)” value in assay [2] (concentration 0.5 μg/ml) is recorded as “Growth”.
